Data reported in ChEMBL document CHEMBL5252581, “Using a Bioactive Eremophila-Derived Serrulatane Scaffold to Generate a Unique Carbamate Library for Anti-infective Evaluations” (J Nat Prod, 2023).

What was measured:
Haemonchus contortus [1] = experiment: Anthelmintic activity against third stage larvae of Haemonchus contortus assessed as reduction in larval motility at 50 uM measured at 168 hrs by microscope based analysis relative to control; format: functional; design: scale not given: the % may be the effect or the level left
Haemonchus contortus [2] = experiment: Anthelmintic activity against Haemonchus contortus assessed as inhibition of L4 development at 50 uM measured at 168 hrs by microscope based analysis relative to control; format: functional
Haemonchus contortus [3] = experiment: Anthelmintic activity against Haemonchus contortus assessed as induction of skinny phenotype at 50 uM measured at 168 hrs by microscope based analysis; format: functional
Plasmodium falciparum [4] = experiment: Antimalarial activity against multidrug resistant Plasmodium falciparum Dd2 assessed as parasite growth inhibition at 80 uM incubated for 72 hrs by DAPI staining method; format: functional
[5] = Cytotoxicity against HEK293 cells assessed as inhibition of cell growth at 80 uM incubated for 72 hrs by alamar blue dye based fluorescence assay relative to control; format: toxicity; details: human
Haemonchus contortus [6] = experiment: Anthelmintic activity against third stage larvae of Haemonchus contortus assessed as reduction in larval motility measured at 168 hrs by microscope based analysis; format: functional, organism-based
Plasmodium falciparum [7] = experiment: Antimalarial activity against chloroquine sensitive Plasmodium falciparum 3D7 assessed as parasite growth inhibition at 80 uM incubated for 72 hrs by DAPI staining method; format: functional
[8] = test system: Human immunodeficiency virus 1; experiment: Reversal of HIV-1 latency infected in GFP-fused human J-Lat 10.6 cells assessed as inhibition of 160 nM PMA-induced HIV production at 100 ug/ml incubated for 24 hrs by flow cytometry analysis relative to control; format: functional; details: Human immunodeficiency virus 1, J-Lat 10.6
[9] = Selectivity index, ratio of IC50 for cytotoxicity against HEK293 cells to IC50 for antimalarial activity against multidrug resistant Plasmodium falciparum Dd2; format: toxicity, cell-based; details: human, read-out: Ratio IC50
[10] = Selectivity index, ratio of IC50 for cytotoxicity against HEK293 cells to IC50 for antimalarial activity against chloroquine sensitive Plasmodium falciparum 3D7; format: toxicity, cell-based; details: human, read-out: Ratio IC50
Plasmodium falciparum [11] = experiment: Antimalarial activity against multidrug resistant Plasmodium falciparum Dd2 assessed as parasite growth inhibition incubated for 72 hrs by DAPI staining method; format: functional, organism-based; details: Dd2, 72 h
[12] = Resistance index, ratio of IC50 for antimalarial activity against multidrug resistant Plasmodium falciparum Dd2 to IC50 for antimalarial activity against chloroquine sensitive Plasmodium falciparum 3D7; format: toxicity
Plasmodium falciparum [13] = experiment: Antimalarial activity against chloroquine sensitive Plasmodium falciparum 3D7 assessed as parasite growth inhibition incubated for 72 hrs by DAPI staining method; format: functional, organism-based; details: 3D7, 72 h
[14] = Cytotoxicity against HEK293 cells assessed as inhibition of cell growth incubated for 72 hrs by alamar blue dye based fluorescence assay; format: toxicity; details: human
[15] = test system: Human immunodeficiency virus 1; experiment: Reversal of HIV-1 latency infected in GFP-fused human J-Lat 10.6 cells assessed as inhibition of 160 nM PMA-induced HIV production incubated for 24 hrs by flow cytometry analysis; format: functional, organism-based; details: Human immunodeficiency virus 1, J-Lat 10.6, 24 h

Row | Compound | Activity (Haemonchus contortus [1]) | inhibition at 50 µM (Haemonchus contortus [2]) | Activity (Haemonchus contortus [3]) | inhibition at 80 µM (Plasmodium falciparum [4]) | inhibition at 72 h, 80 µM [5] | IC50 (Haemonchus contortus [6]) | inhibition at 80 µM (Plasmodium falciparum [7]) | inhibition at 100 µg/mL [8] | selectivity ratio [9] | selectivity ratio [10] | IC50 (Plasmodium falciparum [11]) | Ratio IC50 [12] | IC50 (Plasmodium falciparum [13]) | IC50 at 72 h [14] | EC50 [15]
1 | COC(=O)c1cc2c(c(OC)c1OC)[C@H](C)C[C@@H](OC(=O)NCc1ccccc1)[C@H]2[C@@H](C)CCC=C(C)C | 44.7% | -4.4% | 0% | > 41% | 24% | 0.4 µM | > 41% | < 10% | – | – | – | – | – | – | –
2 | COC(=O)c1cc2c(c(OC)c1OC)[C@H](C)C[C@@H](OC(=O)Nc1cccc(Cl)c1)[C@H]2[C@@H](C)CCC=C(C)C | 39.1% | 7.1% | 0% | – | 42% | 1.6 µM | – | 37.2% | 8.7 | 8.8 | 9.2 µM | 1 | 9.1 µM | – | –
3 | CO/N=C1\C[C@]2(C[C@@H]3C[C@@H](C/C=C(\C)C[C@@H](C)/C=C/C=C4\CO[C@@H]5[C@H](O)C(C)=C[C@@H](C(=O)O3)[C@]45O)O2)O[C@H](/C(C)=C/C(C)C)[C@H]1C [MOXIDECTIN] | 88.2% | 89.7% | 0% | – | – | 3 µM | – | – | – | – | – | – | – | – | –
4 | COC(=O)c1cc2c(c(OC)c1OC)[C@H](C)C[C@@H](OC(=O)Nc1ccc(OC)cc1)[C@H]2[C@@H](C)CCC=C(C)C | 18.3% | 2% | 0% | – | 26% | > 50 µM | – | 22.9% | 7.9 | 8.6 | 10.1 µM | 1.1 | 9.3 µM | – | –
5 | COC(=O)c1cc2c(c(OC)c1OC)[C@H](C)C[C@@H](OC(=O)Nc1ccc(F)cc1)[C@H]2[C@@H](C)CCC=C(C)C | 36.2% | 3.2% | 0% | – | 25% | 31.6 µM | – | 28.7% | 7.4 | 9.2 | 10.8 µM | 1.2 | 8.7 µM | – | –
6 | COc1ccc(C[C@H](N)C(=O)N[C@H]2[C@@H](O)[C@H](n3cnc4c(N(C)C)ncnc43)O[C@@H]2CO)cc1 [PUROMYCIN] | – | – | – | – | – | – | – | – | 8.2 | 15.5 | 0.0814 µM | 1.9 | 0.0429 µM | 0.664 µM | –
7 | COC(=O)c1cc2c(c(OC)c1OC)[C@H](C)C[C@@H](OC(=O)Nc1ccc(C#N)cc1)[C@H]2[C@@H](C)CCC=C(C)C | 6.8% | 12% | 1.7% | < 41% | 2% | 9 µM | < 41% | 59% | – | – | – | – | – | – | 96.7 µM
8 | C[C@](C#N)(COc1cc(C#N)ccc1C(F)(F)F)NC(=O)c1ccc(SC(F)(F)F)cc1 [MONEPANTEL] | 99.2% | 98% | 0% | – | – | 0.2 µM | – | – | – | – | – | – | – | – | –
9 | COC(=O)c1cc2c(c(OC)c1OC)[C@H](C)C[C@@H](OC(=O)Nc1ccc(Cl)cc1)[C@H]2[C@@H](C)CCC=C(C)C | 26.4% | 2.5% | 0% | – | 3.1% | 1.8 µM | – | 31.7% | 6.1 | 6.9 | 13.2 µM | – | 11.7 µM | – | –
10 | COC(=O)c1cc2c(c(OC)c1OC)[C@H](C)C[C@@H](OC(=O)Nc1ccc([N+](=O)[O-])cc1)[C@H]2[C@@H](C)CCC=C(C)C | 30.4% | 4.8% | 60% | – | 52% | 6.4 µM | – | 43.5% | 7.5 | 5 | 10.6 µM | 1.3 | 7.6 µM | – | –
11 | CCc1nc(N)nc(N)c1-c1ccc(Cl)cc1 [PYRIMETHAMINE] | – | – | – | – | – | – | – | – | – | > 1010 | – | > 1010 | – | > 10 µM | –
12 | COC(=O)c1cc2c(c(OC)c1OC)[C@H](C)C[C@@H](OC(=O)Nc1ccccc1)[C@H]2[C@@H](C)CCC=C(C)C | 9.6% | 4% | 0% | > 41% | 47% | > 50 µM | – | 29.3% | 6.3 | 6.9 | – | 1.1 | 11.6 µM | – | –
13 | COC(=O)c1cc2c(c(OC)c1OC)[C@H](C)C[C@@H](OC(=O)Nc1ccc(C)cc1)[C@H]2[C@@H](C)CCC=C(C)C | 12.9% | 2.3% | 0% | – | 12% | 7.1 µM | – | 36.8% | 6.2 | 6.6 | 12.9 µM | 1.1 | 12.2 µM | – | –
14 | COC(=O)c1cc2c(c(OC)c1OC)[C@H](C)C[C@@H](OC(=O)NS(=O)(=O)c1ccc(C)cc1)[C@H]2[C@@H](C)CCC=C(C)C | 15.6% | 21.7% | 67.5% | > 41% | 11% | 6.2 µM | > 41% | 20.7% | – | – | – | – | – | – | –
15 | CC(C)=CCC[C@H](C)[C@H]1c2cc(C(=O)O)c(O)c(O)c2[C@H](C)C[C@H]1O | 16.9% | 4% | 0% | < 41% | 8% | 3.6 µM | < 41% | < 10% | – | – | – | – | – | – | –
16 | CCN(CC)CCCC(C)Nc1ccnc2cc(Cl)ccc12 (configuration not stated) [CHLOROQUINE] | – | – | – | – | – | – | – | – | – | – | – | – | – | > 10 µM | –
17 | COC(=O)c1cc2c(c(OC)c1OC)[C@H](C)C[C@@H](OC(=O)Nc1cc(C(F)(F)F)cc(C(F)(F)F)c1)[C@H]2[C@@H](C)CCC=C(C)C | 16.9% | 3.6% | 0% | – | 34% | 0.8 µM | – | 39.1% | 6.9 | 17.5 | 11.6 µM | 2.5 | 4.6 µM | – | –
18 | C[C@H]1[C@@H](O)O[C@@H]2O[C@@]3(C)CC[C@H]4[C@H](C)CC[C@@H]1[C@@]24OO3 [ARTENIMOL] | – | – | – | – | – | – | – | – | > 3080 | > 6680 | – | 2.2 | – | > 4 µM | –
